According to publication PMC5762728 (Scientific Reports, 2018):

Key:
[1] = target: T1, C-domain of bovine ACE (C-ACE) (Bos taurus, UniProt P12820); test: Inhibition of C-ACE hydrolysis of Aβ peptides by lisinopril; assay type: biochemical; details: lisinopril 10 μM; MALDI-TOF MS
T1 sequence (P12820 643-1222 limits assumed): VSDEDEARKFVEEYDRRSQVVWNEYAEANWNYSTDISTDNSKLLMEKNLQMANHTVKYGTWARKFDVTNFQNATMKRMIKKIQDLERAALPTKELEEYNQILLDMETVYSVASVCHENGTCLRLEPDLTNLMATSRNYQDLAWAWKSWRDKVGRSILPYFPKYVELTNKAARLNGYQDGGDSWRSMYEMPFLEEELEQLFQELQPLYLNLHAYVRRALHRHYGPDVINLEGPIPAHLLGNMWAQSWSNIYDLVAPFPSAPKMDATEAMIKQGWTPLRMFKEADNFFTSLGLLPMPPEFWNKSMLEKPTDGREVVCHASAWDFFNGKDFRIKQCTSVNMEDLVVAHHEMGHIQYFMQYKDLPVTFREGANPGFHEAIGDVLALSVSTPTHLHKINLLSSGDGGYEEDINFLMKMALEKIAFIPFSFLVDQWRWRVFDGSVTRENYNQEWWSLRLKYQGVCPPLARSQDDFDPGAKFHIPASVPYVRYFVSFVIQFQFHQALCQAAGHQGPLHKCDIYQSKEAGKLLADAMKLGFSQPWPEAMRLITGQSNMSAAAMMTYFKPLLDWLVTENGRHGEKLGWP

C-domain of ACE (C-ACE) = test: C-ACE with lisinopril, ratAβ substrate; details: bovine, 37 °C, up to 60 min
N-domain of ACE (N-ACE) [2] = test: N-ACE with lisinopril, ratAβ substrate; details: bovine, 37 °C, up to 60 min
[3] = test system: N-ACE (N-domain of bovine ACE); details: 37 °C, up to 60 min
[4] = target: T2, N-domain of bovine ACE (N-ACE) (Bos taurus, UniProt P12820); test: Hydrolysis of Aβ metal-binding-domain peptides by N-ACE, products identified/quantified by MALDI-TOF MS
T2 sequence (P12820 40-624 limits assumed): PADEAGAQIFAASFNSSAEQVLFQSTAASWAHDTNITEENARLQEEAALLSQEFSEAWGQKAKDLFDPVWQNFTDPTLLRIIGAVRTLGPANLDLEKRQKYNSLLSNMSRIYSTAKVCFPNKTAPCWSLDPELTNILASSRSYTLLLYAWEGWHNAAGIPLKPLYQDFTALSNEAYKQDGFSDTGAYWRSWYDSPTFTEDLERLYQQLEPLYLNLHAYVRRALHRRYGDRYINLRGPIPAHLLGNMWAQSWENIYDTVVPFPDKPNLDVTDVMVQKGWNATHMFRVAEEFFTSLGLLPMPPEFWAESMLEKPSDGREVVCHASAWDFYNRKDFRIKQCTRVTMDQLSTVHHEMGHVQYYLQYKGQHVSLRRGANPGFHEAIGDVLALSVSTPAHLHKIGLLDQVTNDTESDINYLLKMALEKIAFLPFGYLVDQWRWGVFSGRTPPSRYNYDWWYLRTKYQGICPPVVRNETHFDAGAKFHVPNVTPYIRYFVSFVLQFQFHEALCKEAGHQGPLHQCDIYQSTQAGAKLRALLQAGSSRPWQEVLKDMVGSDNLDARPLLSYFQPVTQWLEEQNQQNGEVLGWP

[5] = target: T1, C-domain of bovine ACE (C-ACE); test: Hydrolysis of Aβ metal-binding-domain peptides by C-ACE, products identified/quantified by MALDI-TOF MS; details: same experimental conditions as N-ACE, 37 °C
N-domain of ACE [6] = details: cited from earlier work
N-domain of ACE [7] = details: cited from earlier work; remark: listed apart in the source
N-domain of ACE (N-ACE) [8] = test: N-ACE with lisinopril; details: bovine, 37 °C

NCCCC[C@H](N[C@@H](CCc1ccccc1)C(=O)O)C(=O)N1CCC[C@H]1C(=O)O [lisinopril]
Effect of lisinopril on C-ACE hydrolysis of Aβ(1-16) [1]: fully prevented the formation of these products of hydrolysis

Ac-DAEFGHDSGFEVRHQK-NH2
not cleaved (C-domain of ACE (C-ACE)): complete inhibition of hydrolysis
not cleaved (N-domain of ACE (N-ACE) [2]): complete inhibition of hydrolysis
cleaved bond [3]: Arg13-His14, 10 min
not cleaved [3]: absence of endopeptidase activity toward the G5-H6 peptide bond

Ac-DAEFGHDSGFEVRHQK-NH2 [[CH3CO]-Asp-Ala-Glu-Phe-Gly^5-His-Asp- Ser-Gly- Phe^10-Glu-Val-Arg-His-Gln^15-Lys-[NH2]]
Peptide bond hydrolysed by N-ACE ([4]; bicarbonate buffer pH 7.8, 37 °C, incubation 40 min (Aβ(1-16)), 130 min (amidated Aβ peptides), 60 min (ratAβ peptide)): Arg13-His14
Bond cleaved, N-ACE (backbone positions) ([4]; same digestion as products observed, N-ACE, 37 °C): 13–14
Peptide bond(s) hydrolysed by C-ACE [5]: Arg13-His14, His14-Gln15, and Gln15- Lys16

Pyr-HWSYGLRPG-[Amide]
fragment found (N-domain of ACE [6]): N-terminal tripeptide

Pyr-HWSYGLRPG-[Amide] [luliberin, regulatory peptide, natural substrate of ACE]
Endoproteolytic cleavage by the N-domain of ACE (N-domain of ACE [7]): cleaves an N-terminal tripeptide

[CH3CO]-Asp-Ala-Glu-Phe-Arg^5-His-Asp- Ser-Gly-Tyr^10-Glu-Val-His-His-Gln^15-Lys-[NH2]
not cleaved (N-domain of ACE (N-ACE) [8]): complete inhibition of hydrolysis
